Source: patent US7553966B2, “Glucocorticoid mimetics, methods of making them, pharmaceutical compositions, and uses thereof” (Boehringer Ingelheim Pharmaceuticals, Inc., priority 2002, dated 2009)

Legend:
glucocorticoid receptor = test: Glucocorticoid Receptor Cell Assays (agonist activity in one or more of the above assays); assay type: cell-based; conditions: qualitative statement; assay not specified
Procedure: B. Glucocorticoid Receptor Cell Assays
1. Induction of Aromatase in Fibroblasts (Cell Assay for Transactivation)
Dexamethasone, a synthetic ligand to the glucocorticoid receptor (GR), induces expression of aromatase in human foreskin fibroblast cells. The activity of aromatase is measured by the conversion of testosterone to estradiol in culture media.
On the day of the experiment, the media in the wells is replaced with fresh media. Cells are treated with test compounds to final concentrations of 10^−5 M to 10^−8 M, and testosterone to a final concentration of 300 ng/mL. Each well has a total volume of 100 μL. Samples are made in duplicates. Control wells include: (a) wells that receive testosterone only, and (b) wells that receive testosterone plus 2 μM of dexamethasone to provide maximum induction of aromatase. Plates are incubated at 37° C. overnight (15 to 18 hours), and supernatants are harvested at the end of incubation. […] The amount of estradiol is inversely proportional to the ELISA signals in each well. The extent of aromatase induction by test compounds is expressed as a relative percentage to dexamethasone. EC50 values of test compounds are derived by non-linear curve fitting.
2. Inhibition of IL-6 Production in Fibroblasts (Cell Assay for Transrepression)
Human foreskin fibroblast cells produce IL-6 in response to stimulation by pro-inflammatory cytokine IL-1.
On the next day, media in the wells is replaced with fresh media. Cells are treated with IL-1 (rhIL-1α, R&D Systems Cat. No. 200-LA) to a final concentration of 1 ng/mL, and with test compounds to final concentrations of 10^−5 M to 10^−8 M, in a total volume of 200 μL per well. Samples are done in duplicates. […] Positive control wells receive IL-1 only and represent maximum (or 100%) amount of IL-6 production. Plates are incubated at 37° C. overnight (15 to 18 hours), and supernatants are harvested at the end of incubation. IL-6 levels in the supernatants are determined by the ELISA kits for IL-6 (MedSystems Diagnostics GmbH, Vienna, Austria, Cat. No. BMS213TEN) according to manufacture's instructions. The extent of inhibition of IL-6 by test compounds is expressed in percentage relative to positive controls. IC50 values of test compounds are derived by non-linear curve fitting.
Evaluation of agonist or antagonist activity of compounds binding to the glucocorticoid receptor may be determined by any of the assays.
3. Modulation of Tyrosine Aminotransferase (TAT) Induction in Rat Hepatoma Cells
Testing of compounds for agonist or antagonist activity in induction of tyrosine aminotransferase (TAT) in rat hepatoma cells.
H4-II-E-C3 cells were incubated overnight in 96 well plates (20,000 cells/100 μL/well) in MEM medium containing 10% heat inactivated FBS and 1% nonessential amino acids. On the next day, cells were stimulated with the indicated concentrations of dexamethasone or test compound (dissolved in DMSO, final DMSO concentration 0.2%) for 18 hours. Control cells were treated with 0.2% DMSO. After 18 hours, the cells were lysed in a buffer containing 0.1% Triton X-100 and the TAT activity was measured in a photometric assay using tyrosine and alpha-ketoglutarate as substrates.
For measuring antagonist activity, the hepatoma cells were pre-stimulated by addition of dexamethasone (concentration ranges from 3×10^−9 M to 3×10^−8 M) shortly before the test compound was applied to the cells.
4. Modulation of MMTV-Luc Induction in HeLa Cells
Testing of compounds for agonist or antagonist activity in stimulation of MMTV-(mouse mammary tumor virus) promoter in HeLa cells.
Cells were cultured overnight in DMEM medium without phenol red, supplemented with 3% CCS (charcoal treated calf serum) and then transferred to 96 well plates (15,000 cells/100 μL/well).

[1] = biological target: T1, human glucocorticoid receptor (GR) complex (Homo sapiens, UniProt P04150); test: Glucocorticoid Receptor Competitive Binding Assay (fluorescence polarization, TAMRA-labeled dexamethasone probe); conditions: qualitative statement; competition with TAMRA-labeled dexamethasone
T1 construct: made in house; host or cells: insect expression system (baculovirus lysate)
T1 sequence (P04150 1-777): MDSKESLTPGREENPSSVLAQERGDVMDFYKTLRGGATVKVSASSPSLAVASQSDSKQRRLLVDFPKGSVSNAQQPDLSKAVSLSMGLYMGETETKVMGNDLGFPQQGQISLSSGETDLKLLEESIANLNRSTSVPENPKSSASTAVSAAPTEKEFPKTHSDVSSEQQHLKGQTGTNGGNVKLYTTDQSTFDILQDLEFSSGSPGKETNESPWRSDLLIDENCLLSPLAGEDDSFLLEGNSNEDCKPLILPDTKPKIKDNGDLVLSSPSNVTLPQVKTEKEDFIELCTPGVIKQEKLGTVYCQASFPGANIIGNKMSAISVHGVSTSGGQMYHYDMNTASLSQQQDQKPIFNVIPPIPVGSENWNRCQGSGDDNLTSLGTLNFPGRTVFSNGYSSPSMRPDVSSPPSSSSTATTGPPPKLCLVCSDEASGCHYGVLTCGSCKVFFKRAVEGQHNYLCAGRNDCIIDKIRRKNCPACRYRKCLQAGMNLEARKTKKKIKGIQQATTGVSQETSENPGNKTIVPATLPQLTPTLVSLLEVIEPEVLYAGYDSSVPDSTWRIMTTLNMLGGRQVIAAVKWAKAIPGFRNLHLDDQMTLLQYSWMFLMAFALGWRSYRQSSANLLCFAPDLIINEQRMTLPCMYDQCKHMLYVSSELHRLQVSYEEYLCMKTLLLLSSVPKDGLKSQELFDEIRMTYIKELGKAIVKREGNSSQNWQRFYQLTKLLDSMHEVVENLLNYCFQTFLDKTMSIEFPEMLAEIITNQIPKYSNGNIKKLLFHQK
Outline: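 Competition with TAMRA-dexamethasone for a human GR complex expressed in insect cells, read by fluorescence polarization. Buffer was 10 mM TES, 50 mM KCl, 20 mM Na2MoO4, 1.5 mM EDTA, 0.04% CHAPS, 10% glycerol, 1 mM DTT, pH 7.4.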

| activity in the GR binding assay [1] | Structure (SMILES) | activity as agonists of the glucocorticoid receptor function in one or more of the above assays (glucocorticoid receptor) |
| --- | --- | --- |
| potent activity | CC(C)(CC(O)(Cc1ccnc2cccc(F)c12)C(F)(F)F)c1ccc(F)cc1 (stereo not drawn) [1,1,1-Trifluoro-4-(4-fluorophenyl)-2-(5-fluoroquinolin-4-ylmethyl)-4-methylpentan-2-ol] | potent agonists |
| potent activity | Cc1cccc2[nH]c(CC(O)(CC(C)(C)c3ccc(F)cc3)C(F)(F)F)cc12 (stereo not drawn) [1,1,1-Trifluoro-4-(4-fluorophenyl)-4-methyl-2-(4-methyl-1H-indol-2-ylmethyl)pentan-2-ol] | potent agonists |
| potent activity | CC(C)(CC(O)(Cc1cc2ccccc2[nH]1)C(F)(F)F)c1cc(F)cc2c1OCC2 (stereo not drawn) [1,1,1-Trifluoro-4-(5-fluoro-2,3-dihydrobenzofuran-7-yl)-2-(1H-indol-2-ylmethyl)-4-methylpentan-2-ol] | potent agonists |
| potent activity | CC(C)(CC(O)(Cc1ccnc2ccccc12)C(F)(F)F)c1cc(F)cc2c1OCC2 (stereo not drawn) [1,1,1-Trifluoro-4-(5-fluoro-2,3-dihydrobenzofuran-7-yl)-4-methyl-2-quinolin-4-ylmethylpentan-2-ol] | potent agonists |
| potent activity | COc1ccc(F)cc1C(C)(C)CC(O)(Cc1cc2ccccc2[nH]1)C(F)(F)F (stereo not drawn) [1,1,1-Trifluoro-4-(5-fluoro-2-methoxyphenyl)-2-(1H-indol-2-ylmethyl)-4-methylpentan-2-ol] | potent agonists |
| potent activity | COc1ccc(F)cc1C(C)(C)CC(O)(Cc1ccnc2cc(F)ccc12)C(F)(F)F (stereo not drawn) [1,1,1-Trifluoro-4-(5-fluoro-2-methoxyphenyl)-2-(7-fluoroquinolin-4-ylmethyl)-4-methylpentan-2-ol] | potent agonists |
| potent activity | COc1ccc(F)cc1C(C)(C)CC(O)(Cc1cc2cnccc2[nH]1)C(F)(F)F (stereo not drawn) [1,1,1-Trifluoro-4-(5-fluoro-2-methoxyphenyl)-4-methyl-2-(1H-pyrrolo[3,2-c]pyridin-2-ylmethyl)pentan-2-ol] | potent agonists |
| potent activity | COc1ccc(F)cc1C(C)(C)CC(O)(Cc1[nH]c2cnccc2c1C)C(F)(F)F (stereo not drawn) [1,1,1-Trifluoro-4-(5-fluoro-2-methoxyphenyl)-4-methyl-2-(3-methyl-1H-pyrrolo[2,3-c]pyridin-2-ylmethyl)pentan-2-ol] | potent agonists |
| potent activity | COc1ccc(F)cc1C(C)(C)CC(O)(Cc1ccnc2ccccc12)C(F)(F)F (stereo not drawn) [1,1,1-Trifluoro-4-(5-fluoro-2-methoxyphenyl)-4-methyl-2-(quinolin-4-ylmethyl)pentan-2-ol] | potent agonists |
| potent activity | Cc1ccc(F)cc1C(C)(C)CC(O)(Cc1cc2ccccc2[nH]1)C(F)(F)F (stereo not drawn) [1,1,1-Trifluoro-4-(5-fluoro-2-methylphenyl)-2-(1H-indol-2-ylmethyl)-4-methylpentan-2-ol] | potent agonists |
| potent activity | Cc1ccc(F)cc1C(C)(C)CC(O)(Cc1cc2c(C)cccc2[nH]1)C(F)(F)F (stereo not drawn) [1,1,1-Trifluoro-4-(5-fluoro-2-methylphenyl)-4-methyl-2-(4-methyl-1H-indol-2-ylmethyl)pentan-2-ol] | potent agonists |
| potent activity | CC(C)(CC(O)(Cc1ccnc2ccccc12)C(F)(F)F)c1cccc(C(F)(F)F)c1 (stereo not drawn) [1,1,1-Trifluoro-4-methyl-2-quinolin-4-ylmethyl-4-(3-trifluoromethylphenyl)pentan-2-ol] | potent agonists |
| potent activity | Cc1cc2c(c(C(C)(C)CC(O)(Cc3ccnc4ccccc34)C(F)(F)F)c1)OCC2 (stereo not drawn) [1,1,1-Trifluoro-4-methyl-4-(5-methyl-2,3-dihydrobenzofuran-7-yl)-2-quinolin-4-ylmethylpentan-2-ol] | potent agonists |
| potent activity | CC(C)(CC(O)(Cc1cc2ccncc2[nH]1)C(F)(F)F)c1ccccc1 (stereo not drawn) [1,1,1-Trifluoro-4-methyl-4-phenyl-2-(1H-pyrrolo[2,3-c]pyridin-2-ylmethyl)pentan-2-ol] | potent agonists |
| potent activity | CC(C)(CC(O)(Cc1cc2cnccc2[nH]1)C(F)(F)F)c1ccccc1 (stereo not drawn) [1,1,1-Trifluoro-4-methyl-4-phenyl-2-(1H-pyrrolo[3,2-c]pyridin-2-ylmethyl)pentan-2-ol] | potent agonists |
| potent activity | CC(C)(CC(O)(Cc1ccnc2ccccc12)C(F)(F)F)c1ccccc1 (stereo not drawn) [1,1,1-Trifluoro-4-methyl-4-phenyl-2-quinolin-4-ylmethylpentan-2-ol] | potent agonists |
| potent activity | COc1ccc(F)cc1C(C)(C)CC(O)(Cc1cc(Cl)nc(Cl)c1)C(F)(F)F (stereo not drawn) [2-(2,6-Dichloropyridin-4-ylmethyl)-1,1,1-trifluoro-4-(5-fluoro-2-methoxyphenyl)-4-methylpentan-2-ol] | potent agonists |

| Structure (SMILES) | activity in the GR binding assay [1] | activity as agonists of the glucocorticoid receptor function in one or more of the above assays (glucocorticoid receptor) |
| --- | --- | --- |
| COc1ccc(F)cc1C(C)(C)CC(O)(Cc1cc2ccncc2[nH]1)C(F)(F)F (stereo not drawn) [1,1,1-Trifluoro-4-(5-fluoro-2-methoxyphenyl)-4-methyl-2-(1H-pyrrolo[2,3-c]pyridin-2-ylmethyl)pentan-2-ol] | potent activity | potent agonists |
